Results as given in ChEMBL document CHEMBL5634087, “Novel 5-aminopyrazoles endowed with anti-angiogenetic properties: Design, synthesis and biological evaluation” (Eur J Med Chem, 2023).
Active and inactive are the calls of the source. The rule behind the calls is not given here.

Experiments:
HUVEC [1] = test: Antiangiogenic activity in confluent VEGF stimulated HUVEC cells assessed as inhibition of cell migration at 20 uM incubated for 24 to 48 hrs by Hoechst 33342 staining based wound healing assay; type: functional; details: Homo sapiens, time 24-48 hrs
[2] = Cytotoxicity against human GM06114 cells assessed as growth rate at 10 uM incubated for 48 hrs by MTT assay relative to control; type: toxicity, cell-based; details: gm06114, 48 h
HFF [3] = test: Antiangiogenic activity in confluent HFF cells assessed as inhibition of cell migration at 20 uM incubated for 24 to 48 hrs by Hoechst 33342 staining based wound healing assay; type: functional; details: Homo sapiens, time 24-48 hrs
MCF7 = test: Antiproliferative activity against human MCF7 cells assessed as growth rate at 10 uM incubated for 48 hrs by MTT assay relative to control; type: functional; details: read-out: Activity
[4] = biological target: RAC-alpha serine/threonine-protein kinase (Homo sapiens) (UniProt P31749); test: Inhibition of AKT phosphorylation in serum starved bFGF stimulated HFF cells at 20 uM preincubated for 10 mins followed by bFGF addition and measured after 20 mins by Western blotting analysis; type: cell-based; details: time 30.0 min
HeLa = test: Antiproliferative activity against human HeLa cells assessed as growth rate at 10 uM incubated for 48 hrs by MTT assay relative to control; type: functional; details: read-out: Activity
SK-MEL-28 = test: Antiproliferative activity against human SK-MEL-28 cells assessed as growth rate at 10 uM incubated for 48 hrs by MTT assay relative to control; type: functional; details: read-out: Activity
SK-BR-3 = test: Antiproliferative activity against human SK-BR-3 cells assessed as growth rate at 10 uM incubated for 48 hrs by MTT assay relative to control; type: functional; details: read-out: Activity
[5] = biological target: Mitogen-activated protein kinase; ERK1/ERK2 (Homo sapiens) (UniProt P27361+P28482); test: Inhibition of ERK1/2 phosphorylation in serum starved bFGF stimulated HFF cells assessed as residual phosphorylated ERK1/2 level at 20 uM preincubated for 10 mins followed by bFGF addition and measured after 20 mins by Western blotting analysis relative to control; type: cell-based; details: time 30.0 min
SK-OV-3 = test: Antiproliferative activity against human SK-OV-3 cells assessed as growth rate at 10 uM incubated for 48 hrs by MTT assay relative to control; type: functional; details: read-out: Activity
A549 = test: Antiproliferative activity against human A549 cells assessed as growth rate at 10 uM incubated for 48 hrs by MTT assay relative to control; type: functional; details: read-out: Activity
HepG2 = test: Antiproliferative activity against human HepG2 cells assessed as growth rate at 10 uM incubated for 48 hrs by MTT assay relative to control; type: functional; details: read-out: Activity
MDA-MB-231 = test: Antiproliferative activity against human MDA-MB-231 cells assessed as growth rate at 10 uM incubated for 48 hrs by MTT assay relative to control; type: functional; details: read-out: Activity
[6] = biological target: RAC-alpha serine/threonine-protein kinase (Homo sapiens) (UniProt P31749); test: Inhibition of AKT phosphorylation in serum starved VEGF stimulated HUVEC cells at 20 uM preincubated for 10 mins followed by VEGF addition and measured after 20 mins by Western blotting analysis relative to control; type: cell-based; details: time 30.0 min
HFF [7] = test: Antiangiogenic activity in confluent HFF cells assessed as inhibition of cell migration at 20 uM incubated for 24 to 48 hrs by Hoechst 33342 staining based wound healing assay relative to control; type: functional, Homo sapiens; parameters: scale not given: the % may be the effect or the level left; details: time 24-48 hrs
HFF [8] = test: Antiangiogenic activity in confluent HFF cells assessed as relative migration rate at 20 uM incubated for 24 hrs by Hoechst 33342 staining based wound healing assay relative to control; type: functional, Homo sapiens
HFF [9] = test: Antiangiogenic activity in confluent HFF cells assessed as relative migration rate at 20 uM incubated for 48 hrs by Hoechst 33342 staining based wound healing assay relative to control; type: functional, Homo sapiens
[10] = biological target: RAC-alpha serine/threonine-protein kinase (Homo sapiens) (UniProt P31749); test: Inhibition of AKT phosphorylation in serum starved bFGF stimulated HFF cells assessed as residual activity at 20 uM preincubated for 10 mins followed by bFGF addition and measured after 20 mins by Western blotting analysis relative to control; type: cell-based; details: time 30.0 min
HUVEC [11] = test: Antiangiogenic activity in confluent VEGF stimulated HUVEC cells assessed as relative cell migration rate at 20 uM incubated for 24 hrs by Hoechst 33342 staining based wound healing assay relative to control; type: functional, Homo sapiens

Sequence of RAC-alpha serine/threonine-protein kinase (Homo sapiens) (P31749 whole entry): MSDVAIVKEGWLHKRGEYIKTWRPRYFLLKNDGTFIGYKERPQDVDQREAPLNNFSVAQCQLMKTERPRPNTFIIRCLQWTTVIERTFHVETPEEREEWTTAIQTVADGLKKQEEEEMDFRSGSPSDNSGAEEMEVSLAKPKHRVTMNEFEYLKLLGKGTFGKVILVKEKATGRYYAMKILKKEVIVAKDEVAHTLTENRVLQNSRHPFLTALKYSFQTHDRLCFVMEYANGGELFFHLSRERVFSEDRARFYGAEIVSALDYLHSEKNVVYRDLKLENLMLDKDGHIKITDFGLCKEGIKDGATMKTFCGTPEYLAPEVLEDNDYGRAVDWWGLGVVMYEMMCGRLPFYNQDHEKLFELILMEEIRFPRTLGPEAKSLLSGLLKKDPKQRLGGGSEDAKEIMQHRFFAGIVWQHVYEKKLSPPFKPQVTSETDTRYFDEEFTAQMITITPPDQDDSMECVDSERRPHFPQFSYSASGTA
Sequence of Mitogen-activated protein kinase; ERK1/ERK2 (Homo sapiens) (P27361 whole entry, looked up): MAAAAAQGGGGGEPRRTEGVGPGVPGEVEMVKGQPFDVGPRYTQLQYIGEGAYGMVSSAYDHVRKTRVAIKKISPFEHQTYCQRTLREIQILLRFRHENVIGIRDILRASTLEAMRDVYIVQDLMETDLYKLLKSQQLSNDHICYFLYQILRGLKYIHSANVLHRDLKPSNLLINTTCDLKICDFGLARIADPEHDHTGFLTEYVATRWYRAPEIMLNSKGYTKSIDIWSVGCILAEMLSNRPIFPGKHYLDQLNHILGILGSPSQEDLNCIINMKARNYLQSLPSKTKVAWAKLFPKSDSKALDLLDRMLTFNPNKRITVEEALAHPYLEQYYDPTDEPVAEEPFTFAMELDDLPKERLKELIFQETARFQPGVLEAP
Sequence of Mitogen-activated protein kinase; ERK1/ERK2 (Homo sapiens) (P28482 whole entry, looked up): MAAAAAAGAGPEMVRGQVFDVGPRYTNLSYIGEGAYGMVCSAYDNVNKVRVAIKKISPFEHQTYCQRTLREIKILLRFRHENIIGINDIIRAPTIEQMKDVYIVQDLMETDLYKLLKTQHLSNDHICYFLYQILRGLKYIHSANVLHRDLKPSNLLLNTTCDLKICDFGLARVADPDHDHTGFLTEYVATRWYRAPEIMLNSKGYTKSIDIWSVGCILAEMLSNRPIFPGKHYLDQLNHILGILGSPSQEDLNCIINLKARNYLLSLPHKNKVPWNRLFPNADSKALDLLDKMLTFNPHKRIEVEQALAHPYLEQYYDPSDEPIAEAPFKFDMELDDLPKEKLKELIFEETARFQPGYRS

Compound | Activity (HUVEC [1]) | Activity [2] | Activity (HFF [3]) | growth at 10 µM (MCF7) | inhibition [4] | growth at 10 µM (HeLa) | growth at 10 µM (SK-MEL-28) | growth at 10 µM (SK-BR-3) | Activity [5] | growth at 10 µM (SK-OV-3) | growth at 10 µM (A549) | growth at 10 µM (HepG2) | growth at 10 µM (MDA-MB-231) | inhibition [6] | Activity (HFF [7]) | Activity (HFF [8]) | Activity (HFF [9]) | Activity [10] | Activity (HUVEC [11])
CCCCC(Cn1nc(Nc2ccc(C)cc2)c(C(=O)OCC)c1N)OC(=O)Nc1cccc(C(F)(F)F)c1 (stereo not drawn) | inactive | 99.16% | inactive | 143% | inactive | 97% | 123% | 110% | > 70% | 129% | 112% | 111% | 149% |  |  |  |  |  | 
CCCCC(O)Cn1nc(Nc2ccccc2)c(C(=O)OCC)c1N (stereo not drawn) | inactive | 97.13% | Active | 147% | Active | 115% | 117% | 109% | > 70% | 118% | 130% | 102% | 131% | 43% |  |  |  |  | 
CCOC(=O)c1c(Nc2ccccc2)nn(CC(OC(=O)Nc2cccc(C(F)(F)F)c2)c2ccccc2)c1N (stereo not drawn) | inactive | 126.08% |  | 124% |  | 60.6% | 115% | 125% | > 70% | 120% | 82.9% | 117% | 113% | 34.2% | <60% |  |  |  | 
CCCC(O)Cn1ncc(C(=O)OCC)c1NC(=O)Nc1cccc(C(F)(F)F)c1 (stereo not drawn) | inactive |  |  |  |  |  |  |  |  |  |  |  |  | 59.1% |  | 40.31% | 31.37% | 55.9% | 56.54%
CCCCC(O)Cn1nc(Nc2ccccc2C)c(C(=O)OCC)c1N (stereo not drawn) | inactive | 114.61% | Active | 118% | Active | 99% | 121% | 110% | > 70% | 115% | 127% | 99.9% | 127% | 43% |  |  |  |  | 
CCOC(=O)c1c(Nc2ccc(C)cc2)nn(CC(OC(=O)Nc2cccc(C(F)(F)F)c2)c2ccccc2)c1N (stereo not drawn) | inactive | 126.2% | inactive | 129% | inactive | 81.4% | 129% | 124% | > 70% | 131% | 98.4% | 122% | 124% |  |  |  |  |  | 
CCCCC(Cn1nc(Nc2ccc(Cl)cc2)c(C(=O)OCC)c1N)OC(=O)Nc1cccc(C(F)(F)F)c1 (stereo not drawn) | inactive | 111.34% | inactive | 107% | inactive | 76.5% | 136% | 118% | > 70% | 106% | 90.7% | 110% | 117% |  |  |  |  |  | 
CCCCC(O)Cn1nc(Nc2ccc(C)cc2)c(C(=O)OCC)c1N (stereo not drawn) | inactive | 106.98% | Active | 155% | Active | 109% | 122% | 105% | 50% | 112% | 120% | 99% | 134% | 43% |  |  | 14.34% |  | 
CCOC(=O)c1c(Nc2ccccc2)nn(CC(O)c2ccccc2)c1N (stereo not drawn) | inactive | 96.04% |  | 150% |  | 111% | 114% | 112% | > 70% | 118% | 133% | 108% | 131% |  |  | <40% | <55% | 27.3% | 
CCOC(=O)c1c(Nc2ccc(Cl)cc2)nn(CC(O)c2ccccc2)c1N (stereo not drawn) | inactive | 113.67% |  | 125% |  | 77.6% | 131% | 119% | > 70% | 114% | 116% | 102% | 127% | 21% |  | <40% | <55% | 27.3% | 
CCCCC(Cn1nc(Nc2ccccc2C)c(C(=O)OCC)c1N)OC(=O)Nc1cccc(C(F)(F)F)c1 (stereo not drawn) | inactive | 110.05% | inactive | 110% | inactive | 58.5% | 141% | 124% | > 70% | 103% | 81.7% | 106% | 117% | 29.7% |  |  |  |  | 
CCCCC(O)Cn1nc(Nc2cccc(C)c2)c(C(=O)OCC)c1N (stereo not drawn) | inactive | 110.95% | Active | 112% | Active | 98.2% | 110% | 107% | > 70% | 114% | 121% | 105% | 113% | 43% |  | 10.57% |  |  | 
CCCCC(Cn1nc(Nc2ccccc2)c(C(=O)OCC)c1N)OC(=O)Nc1cccc(C(F)(F)F)c1 (stereo not drawn) | inactive | 96.63% | inactive | 141% | inactive | 85.8% | 123% | 112% | > 70% | 113% | 98.1% | 107% | 126% |  |  |  |  |  | 
CCOC(=O)c1c(Nc2ccc(C)cc2)nn(CC(O)c2ccccc2)c1N (stereo not drawn) | inactive | 105.89% |  | 119% |  | 80% | 128% | 112% | > 70% | 117% | 118% | 102% | 117% | 16.2% |  | <40% | <55% | 27.3% | 
CCCCC(O)Cn1nc(Nc2cccc(Cl)c2)c(C(=O)OCC)c1N (stereo not drawn) | inactive | 92.22% | Active | 137% | inactive | 117% | 106% | 108% | > 70% | 128% | 136% | 108% | 140% |  |  |  |  |  | 
CCCCC(Cn1nc(Nc2ccccc2Cl)c(C(=O)OCC)c1N)OC(=O)Nc1cccc(C(F)(F)F)c1 (stereo not drawn) | inactive | 92.97% |  | 142% | inactive | 84.3% | 121% | 106% | > 70% | 127% | 109% | 110% | 133% |  | <60% |  |  |  | 
